Among the data in patent US12258328B2, “6-membered heteroaryl-containing aminopyridine compounds as EGFR inhibitors” (YUHAN CORPORATION, priority 2021, dated 2025) are IC50 values, retold here.

Where two headings read alike, the source gives them in different places.

For one assay, the target named is EGFR L858R/C797S (Homo sapiens, UniProt P00533, C797S/L858R). As to the kind of experiment: Biochemical EGFR kinase assay (Lance Ultra TR-FRET), double mutant L858R/C797S. The essentials:
(§1)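 Enzyme reactions lasted 1 hour at room temperature with test compounds between 0.003 and 10 μM, followed by 10 mM EDTA quench.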

The next assay concerns the target EGFR del19/C797S (Homo sapiens, UniProt P00533, C797S/DEL746-750). As to the kind of experiment: Biochemical EGFR kinase assay (Lance Ultra TR-FRET), double mutant del19/C797S. The essentials:
as §1

The next assay deals with EGFR L858R/T790M/C797S (Homo sapiens, UniProt P00533, C797S/L858R/T790M). As to the kind of experiment: Biochemical EGFR kinase assay (Lance Ultra TR-FRET), triple mutant L858R/T790M/C797S. The essentials:
as §1

The target of the next assay is EGFR del19/T790M/C797S (Homo sapiens, UniProt P00533, C797S/DEL746-750/T790M). Description: Biochemical EGFR kinase assay (Lance Ultra TR-FRET), triple mutant del19/T790M/C797S. The essentials: as §1
Chain of EGFR del19/T790M/C797S (P00533 with tags, fused parts or gaps DEL746-750/T790M/C797S): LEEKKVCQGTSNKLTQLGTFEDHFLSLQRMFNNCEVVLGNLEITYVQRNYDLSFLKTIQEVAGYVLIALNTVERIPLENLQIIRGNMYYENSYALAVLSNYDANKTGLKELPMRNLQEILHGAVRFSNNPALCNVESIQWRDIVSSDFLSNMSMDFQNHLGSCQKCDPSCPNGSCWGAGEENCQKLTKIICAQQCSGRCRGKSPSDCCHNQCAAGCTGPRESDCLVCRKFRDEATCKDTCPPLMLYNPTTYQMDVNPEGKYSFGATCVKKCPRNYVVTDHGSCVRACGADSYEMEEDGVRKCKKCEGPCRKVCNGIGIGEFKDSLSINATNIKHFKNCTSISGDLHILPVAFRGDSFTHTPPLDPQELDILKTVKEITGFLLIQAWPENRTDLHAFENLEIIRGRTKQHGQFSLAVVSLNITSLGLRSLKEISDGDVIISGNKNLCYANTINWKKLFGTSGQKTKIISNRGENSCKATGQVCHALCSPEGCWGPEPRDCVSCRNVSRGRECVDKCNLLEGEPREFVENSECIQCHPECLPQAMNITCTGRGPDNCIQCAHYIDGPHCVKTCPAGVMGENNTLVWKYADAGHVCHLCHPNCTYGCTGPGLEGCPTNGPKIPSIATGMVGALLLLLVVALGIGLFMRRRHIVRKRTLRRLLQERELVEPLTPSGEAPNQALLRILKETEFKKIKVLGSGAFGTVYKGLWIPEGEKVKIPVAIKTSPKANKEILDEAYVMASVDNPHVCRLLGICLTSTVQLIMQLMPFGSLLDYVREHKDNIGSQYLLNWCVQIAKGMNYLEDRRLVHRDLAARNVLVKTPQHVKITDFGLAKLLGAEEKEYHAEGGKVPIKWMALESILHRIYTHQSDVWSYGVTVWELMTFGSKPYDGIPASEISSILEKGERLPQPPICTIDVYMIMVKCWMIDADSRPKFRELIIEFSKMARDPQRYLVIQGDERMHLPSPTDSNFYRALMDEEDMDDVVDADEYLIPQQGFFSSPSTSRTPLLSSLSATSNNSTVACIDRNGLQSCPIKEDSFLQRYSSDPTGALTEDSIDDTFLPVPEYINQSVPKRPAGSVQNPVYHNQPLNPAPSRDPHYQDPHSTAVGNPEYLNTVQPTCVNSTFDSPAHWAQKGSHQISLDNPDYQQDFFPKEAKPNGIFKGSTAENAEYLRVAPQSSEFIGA
For the next assay, the target named is EGFR wildtype (Homo sapiens, UniProt P00533). As to the kind of experiment: Biochemical EGFR kinase assay (Lance Ultra TR-FRET), wildtype. The essentials:
as §1

[1] abbreviates: ATP at Km, read-out: IC50 L858R/C797S, Km ATP.
The mark [2] stands for this setting: ATP at Km, read-out: IC50 del19/C797S, Km ATP.
Setting [3] is: ATP at Km, read-out: IC50 L858R/T790M/C797S, Km ATP.
The mark [4] stands for this setting: IC50 L858R/T790M/C797S, 100 μM ATP.
[5] abbreviates: ATP at Km, read-out: IC50 del19/T790M/C797S, Km ATP.
The mark [6] stands for this setting: IC50 del19/T790M/C797S, 100 μM ATP.
Where [7] appears, read: ATP at Km, read-out: IC50 WT, Km ATP.
Where [8] appears, read: Km ATP, read-out: IC50 L858R/C797S (nM) Km ATP.
Where [9] appears, read: Km ATP, read-out: IC50 del19/C797S (nM) Km ATP.
Where [10] appears, read: Km ATP, read-out: IC50 L858R/T790M/C797S (nM) Km ATP.
The mark [11] stands for this setting: Km ATP, read-out: IC50 del19/T790M/C797S (nM) Km ATP.
[12] abbreviates: Km ATP, read-out: IC50 WT (nM) Km ATP.

Chain of EGFR del19/C797S (P00533 with tags, fused parts or gaps DEL746-750/C797S): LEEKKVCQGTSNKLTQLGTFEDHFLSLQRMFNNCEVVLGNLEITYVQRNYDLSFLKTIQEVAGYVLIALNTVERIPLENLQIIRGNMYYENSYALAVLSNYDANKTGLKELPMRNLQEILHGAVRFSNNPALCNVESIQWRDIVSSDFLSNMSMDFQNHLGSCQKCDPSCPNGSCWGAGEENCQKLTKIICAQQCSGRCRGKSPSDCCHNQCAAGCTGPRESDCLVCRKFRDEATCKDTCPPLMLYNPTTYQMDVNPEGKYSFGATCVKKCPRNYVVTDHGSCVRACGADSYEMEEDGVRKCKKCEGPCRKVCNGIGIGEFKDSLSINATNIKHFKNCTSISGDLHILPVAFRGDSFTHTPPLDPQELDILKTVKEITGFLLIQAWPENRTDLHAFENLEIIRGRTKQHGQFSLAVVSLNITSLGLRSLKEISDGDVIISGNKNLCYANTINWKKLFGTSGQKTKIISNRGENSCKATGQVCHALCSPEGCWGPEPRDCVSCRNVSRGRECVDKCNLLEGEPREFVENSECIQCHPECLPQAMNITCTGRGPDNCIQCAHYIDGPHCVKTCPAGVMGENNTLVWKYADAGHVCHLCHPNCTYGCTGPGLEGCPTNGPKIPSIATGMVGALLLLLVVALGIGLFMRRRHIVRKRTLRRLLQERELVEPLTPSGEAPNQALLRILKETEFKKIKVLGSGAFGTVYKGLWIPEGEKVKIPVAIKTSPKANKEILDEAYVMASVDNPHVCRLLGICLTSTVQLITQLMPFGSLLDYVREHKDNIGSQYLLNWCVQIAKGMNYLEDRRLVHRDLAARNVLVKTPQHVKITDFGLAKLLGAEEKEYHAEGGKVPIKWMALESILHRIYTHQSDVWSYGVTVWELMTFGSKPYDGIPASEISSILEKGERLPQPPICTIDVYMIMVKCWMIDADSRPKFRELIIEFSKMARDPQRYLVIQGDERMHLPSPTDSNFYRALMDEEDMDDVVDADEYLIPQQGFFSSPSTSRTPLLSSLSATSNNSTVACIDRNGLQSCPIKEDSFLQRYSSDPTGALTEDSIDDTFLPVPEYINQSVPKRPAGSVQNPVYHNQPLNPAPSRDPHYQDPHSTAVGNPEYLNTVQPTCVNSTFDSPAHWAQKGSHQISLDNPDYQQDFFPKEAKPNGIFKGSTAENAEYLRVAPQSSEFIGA
Chain of EGFR L858R/T790M/C797S (P00533 25-1210 T790M/C797S/L858R): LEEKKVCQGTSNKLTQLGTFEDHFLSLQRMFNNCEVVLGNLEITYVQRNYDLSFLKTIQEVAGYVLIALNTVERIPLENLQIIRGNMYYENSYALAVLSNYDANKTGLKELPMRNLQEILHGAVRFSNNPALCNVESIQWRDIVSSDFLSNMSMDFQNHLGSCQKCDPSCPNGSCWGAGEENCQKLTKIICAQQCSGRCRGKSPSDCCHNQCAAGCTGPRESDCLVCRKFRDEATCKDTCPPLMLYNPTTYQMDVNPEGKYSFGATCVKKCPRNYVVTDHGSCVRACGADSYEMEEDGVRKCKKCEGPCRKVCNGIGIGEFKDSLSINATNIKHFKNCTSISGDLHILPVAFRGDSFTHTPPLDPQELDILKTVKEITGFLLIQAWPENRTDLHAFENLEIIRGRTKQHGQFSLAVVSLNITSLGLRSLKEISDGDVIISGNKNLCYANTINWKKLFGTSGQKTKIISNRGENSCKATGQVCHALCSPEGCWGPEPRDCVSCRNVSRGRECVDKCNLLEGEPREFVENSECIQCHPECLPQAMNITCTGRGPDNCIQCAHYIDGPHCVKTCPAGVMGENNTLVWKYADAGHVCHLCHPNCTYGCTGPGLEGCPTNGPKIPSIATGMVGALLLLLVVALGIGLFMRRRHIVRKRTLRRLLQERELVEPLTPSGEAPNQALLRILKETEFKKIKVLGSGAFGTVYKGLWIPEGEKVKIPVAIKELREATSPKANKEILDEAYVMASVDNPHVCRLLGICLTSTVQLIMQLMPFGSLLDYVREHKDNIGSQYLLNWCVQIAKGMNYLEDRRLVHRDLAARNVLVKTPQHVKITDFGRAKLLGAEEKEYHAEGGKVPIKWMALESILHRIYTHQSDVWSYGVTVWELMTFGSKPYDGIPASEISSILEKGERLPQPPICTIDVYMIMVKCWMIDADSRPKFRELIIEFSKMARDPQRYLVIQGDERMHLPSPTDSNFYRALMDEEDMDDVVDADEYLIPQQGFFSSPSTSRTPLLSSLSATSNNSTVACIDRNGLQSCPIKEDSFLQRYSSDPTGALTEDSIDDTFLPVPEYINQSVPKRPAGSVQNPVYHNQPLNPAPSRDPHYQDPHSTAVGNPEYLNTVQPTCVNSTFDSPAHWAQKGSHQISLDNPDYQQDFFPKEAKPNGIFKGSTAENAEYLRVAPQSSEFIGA
Chain of EGFR wildtype (P00533 25-1210): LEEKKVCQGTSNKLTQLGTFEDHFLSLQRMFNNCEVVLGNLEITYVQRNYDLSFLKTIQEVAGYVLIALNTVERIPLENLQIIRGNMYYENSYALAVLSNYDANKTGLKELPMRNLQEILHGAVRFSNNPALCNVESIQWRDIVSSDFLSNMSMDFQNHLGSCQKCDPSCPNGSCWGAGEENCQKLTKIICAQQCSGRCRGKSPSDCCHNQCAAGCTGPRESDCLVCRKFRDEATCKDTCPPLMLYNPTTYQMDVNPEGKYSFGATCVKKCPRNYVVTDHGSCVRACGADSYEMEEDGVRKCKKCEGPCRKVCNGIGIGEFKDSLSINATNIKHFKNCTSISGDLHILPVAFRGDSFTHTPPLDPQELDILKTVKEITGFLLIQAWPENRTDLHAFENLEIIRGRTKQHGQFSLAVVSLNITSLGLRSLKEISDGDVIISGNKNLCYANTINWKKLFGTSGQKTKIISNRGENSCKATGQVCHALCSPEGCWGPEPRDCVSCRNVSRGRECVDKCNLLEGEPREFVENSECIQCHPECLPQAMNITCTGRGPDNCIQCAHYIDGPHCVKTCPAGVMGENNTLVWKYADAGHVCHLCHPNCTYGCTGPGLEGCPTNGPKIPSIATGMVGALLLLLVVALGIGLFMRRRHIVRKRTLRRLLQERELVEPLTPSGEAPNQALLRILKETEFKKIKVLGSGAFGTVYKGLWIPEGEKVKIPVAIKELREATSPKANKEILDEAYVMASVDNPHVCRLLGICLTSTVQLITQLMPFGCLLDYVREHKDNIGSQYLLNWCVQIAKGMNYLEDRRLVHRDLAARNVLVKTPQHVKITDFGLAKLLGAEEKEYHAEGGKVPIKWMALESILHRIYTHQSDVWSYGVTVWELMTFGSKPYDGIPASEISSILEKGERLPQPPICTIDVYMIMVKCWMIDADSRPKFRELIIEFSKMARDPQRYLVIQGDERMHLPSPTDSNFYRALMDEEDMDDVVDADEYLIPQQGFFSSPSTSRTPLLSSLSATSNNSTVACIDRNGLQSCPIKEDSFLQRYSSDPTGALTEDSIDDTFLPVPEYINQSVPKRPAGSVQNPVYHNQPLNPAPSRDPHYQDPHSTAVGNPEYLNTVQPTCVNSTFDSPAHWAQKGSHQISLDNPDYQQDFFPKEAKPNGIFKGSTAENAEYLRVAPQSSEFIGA

Take `O=S(=O)(C1CC1)n1cc(-c2nccc(Nc3cc(N[C@H]4CC[C@@H](CO)CC4)c(-c4ccc(OC(F)(F)F)cn4)cn3)n2)cn1` [Example 195, ((1s,4s)-4-((6′-((2-(1-(Cyclopropylsulfonyl)-1H-pyrazol-4-yl)pyrimidin-4-yl)amino)-5-(trifluoromethoxy)-[2,3′-bipyridin]-4′-yl)amino)cyclohexyl)methanol]: the IC50 on EGFR L858R/C797S (setting [1]) is 3.6 nM; at EGFR L858R/C797S (IC50 L858R/C797S, 100 μM ATP) it was 36.9 nM; on EGFR del19/C797S (setting [2]) it was 6.6 nM; at EGFR del19/C797S (IC50 del19/C797S, 100 μM ATP) it was 16.3 nM; at EGFR L858R/T790M/C797S (setting [3]) it was 1 nM; against EGFR L858R/T790M/C797S (setting [4]), 2.5 nM. Besides, the IC50 was 3.3 nM on EGFR del19/T790M/C797S (setting [5]); 3.6 nM against EGFR del19/T790M/C797S (setting [6]); 25 nM on EGFR wildtype (setting [7]); > 10000 nM against EGFR wildtype (IC50 WT, 100 μM ATP).
In the case of `O=S(=O)(C1CC1)n1cc(-c2nccc(Nc3cc(N[C@H]4CC[C@@H](CCO)CC4)c(-c4cc(C(F)F)ccn4)cn3)n2)cn1` [Example 97, 2-((1s,4s)-4-((6′-((2-(1-(Cyclopropylsulfonyl)-1H-pyrazol-4-yl)pyrimidin-4-yl)amino)-4-(difluoromethyl)-[2,3′-bipyridin]-4′-yl)amino)cyclohexyl)ethan-1-ol], the IC50 came to 52.6 nM at EGFR L858R/C797S (IC50 L858R/C797S (nM) 100 μM ATP, 100 μM ATP); 2 nM at EGFR L858R/C797S (setting [8]); 6 nM at EGFR del19/C797S (IC50 del19/C797S (nM) 100 μM ATP, 100 μM ATP); 2.3 nM on EGFR del19/C797S (setting [9]); 1 nM at EGFR L858R/T790M/C797S (IC50 L858R/T790M/C797S (nM) 100 μM ATP, 100 μM ATP); 0.5 nM on EGFR L858R/T790M/C797S (setting [10]). In addition, the IC50 is 2.2 nM against EGFR del19/T790M/C797S (IC50 del19/T790M/C797S (nM) 100 μM ATP, 100 μM ATP); 2.1 nM on EGFR del19/T790M/C797S (setting [11]); > 10000 nM at EGFR wildtype (IC50 WT (nM) 100 μM ATP, 100 μM ATP); 7.4 nM on EGFR wildtype (setting [12]).
`CC(C)Nc1cc(Nc2ccnc(-c3cnn(S(=O)(=O)C4CC4)c3)n2)ncc1-c1ccc(CN2CCOCC2)cn1` [Example 125, N^6′-(2-(1-(Cyclopropylsulfonyl)-1H-pyrazol-4-yl)pyrimidin-4-yl)-N^4′-isopropyl-5-(morpholinomethyl)-[2,3′-bipyridine]-4′,6′-diamine]: the IC50 was 12.1 nM on EGFR L858R/C797S (setting [8]); 8.9 nM on EGFR del19/C797S (setting [9]); 0.3 nM on EGFR L858R/T790M/C797S (setting [10]); 0.7 nM on EGFR del19/T790M/C797S (setting [11]); 44.8 nM at EGFR wildtype (setting [12]).
As to `CC(C)(F)c1ccc(-c2cnc(Nc3ccnc(-c4cnn(S(=O)(=O)C5CC5)c4)n3)cc2N[C@H]2CC[C@@H](C(C)(C)O)CC2)nc1` [Example 236, 2-((1s,4s)-4-((6′-((2-(1-(Cyclopropylsulfonyl)-1H-pyrazol-4-yl)pyrimidin-4-yl)amino)-5-(2-fluoropropan-2-yl)-[2,3′-bipyridin]-4′-yl)amino)cyclohexyl)propan-2-ol], the IC50 came to 3 nM on EGFR L858R/C797S (setting [1]); 177 nM against EGFR L858R/C797S (IC50 L858R/C797S, 100 μM ATP); 9.1 nM on EGFR del19/C797S (setting [2]); 24.4 nM against EGFR del19/C797S (IC50 del19/C797S, 100 μM ATP); 1.9 nM at EGFR L858R/T790M/C797S (setting [3]); 6.4 nM at EGFR L858R/T790M/C797S (setting [4]). Also, the IC50 on EGFR del19/T790M/C797S (setting [5]) was 2.5 nM; at EGFR del19/T790M/C797S (setting [6]), 9.1 nM; on EGFR wildtype (setting [7]), 41.8 nM; on EGFR wildtype (IC50 WT, 100 μM ATP), > 10000 nM.
On to `CC1(O)CCC(Nc2cc(Nc3ccnc(-c4cnn(S(=O)(=O)C5CC5)c4)n3)ncc2-c2cnc(OC3CCOC3)cn2)CC1` (stereo not shown) [Example 149, (1s,4s)-4-((2-((2-(1-(Cyclopropylsulfonyl)-1H-pyrazol-4-yl)pyrimidin-4-yl)amino)-5-(5-((tetrahydrofuran-3-yl)oxy)pyrazin-2-yl)pyridin-4-yl)amino)-1-methylcyclohexan-1-ol], for which the IC50 at EGFR L858R/C797S (setting [8]) amounted to 0.4 nM; at EGFR del19/C797S (setting [9]), 1 nM; at EGFR L858R/T790M/C797S (setting [10]), 0.3 nM; on EGFR del19/T790M/C797S (setting [11]) it was 0.4 nM; on EGFR wildtype (setting [12]) it was 11.2 nM.
